# Measurements published in patent US20200079766A1, “MONOCYCLIC OGA INHIBITOR COMPOUNDS” (Janssen Pharmaceutica NV, priority 2016, published 2020).
# How the values were obtained:
# [1] = target: T1, recombinant human Meningioma Expressed Antigen 5 (MGEA5), also referred to as O-GlcNAcase (OGA) (Homo sapiens, UniProt O60502); test: OGA biochemical assay: inhibition of FM-GlcNAc hydrolysis, fluorescence; protocol A (10 nM OGA, 1 h) or protocol B (2 nM OGA, 6 h); conditions: Enzymatic protocol B (2 nM OGA, 6 h); for IC50: read-out: Enzymatic hOGA, pIC50 (converted)
# T1 construct: Full length OGA enzyme was purchased at OriGene (cat # TP322411); purchased OriGene TP322411
# T1 sequence (O60502 1-916): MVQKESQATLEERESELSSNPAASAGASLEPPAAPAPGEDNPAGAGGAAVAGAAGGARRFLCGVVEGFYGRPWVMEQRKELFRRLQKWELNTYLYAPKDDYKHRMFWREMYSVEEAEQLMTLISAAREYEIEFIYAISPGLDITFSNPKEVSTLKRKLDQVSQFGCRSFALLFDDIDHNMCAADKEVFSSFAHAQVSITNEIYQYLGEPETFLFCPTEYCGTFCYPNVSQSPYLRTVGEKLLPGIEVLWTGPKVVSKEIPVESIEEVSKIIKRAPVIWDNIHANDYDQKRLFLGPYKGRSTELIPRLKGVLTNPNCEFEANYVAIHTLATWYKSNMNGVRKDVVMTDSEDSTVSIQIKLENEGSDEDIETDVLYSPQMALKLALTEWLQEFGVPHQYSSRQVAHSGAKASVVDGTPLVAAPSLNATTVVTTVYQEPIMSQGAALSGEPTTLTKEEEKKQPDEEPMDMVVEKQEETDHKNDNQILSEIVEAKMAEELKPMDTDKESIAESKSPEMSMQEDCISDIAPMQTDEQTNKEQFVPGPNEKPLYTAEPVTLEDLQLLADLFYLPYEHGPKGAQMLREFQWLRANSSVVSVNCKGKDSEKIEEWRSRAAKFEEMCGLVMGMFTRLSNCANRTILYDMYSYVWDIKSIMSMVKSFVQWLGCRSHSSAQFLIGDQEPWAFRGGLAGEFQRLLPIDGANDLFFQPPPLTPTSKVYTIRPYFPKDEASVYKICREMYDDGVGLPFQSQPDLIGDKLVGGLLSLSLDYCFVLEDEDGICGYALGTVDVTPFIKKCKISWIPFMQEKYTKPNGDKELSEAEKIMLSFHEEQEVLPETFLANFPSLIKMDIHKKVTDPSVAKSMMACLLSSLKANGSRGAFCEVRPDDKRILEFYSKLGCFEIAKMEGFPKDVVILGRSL
# How it was run: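 Full-length human OGA in 200 mM citrate/phosphate pH 7.2 with 0.005% Tween-20, compound pre-incubated 60 min at RT, then 100 uM FM-GlcNAc (final); 10 nM enzyme for 1 h or 2 nM for 6 h at RT. Stopped with pH 11.0 carbonate; fluorescein read at ex 485/em 538 nm. IC50 and Hill coefficient from curve fit.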
# [2] = tested on: OGA in HEK293 cells inducible for P301L mutant human Tau (isoform 2N4R); test: OGA cellular assay: immunocytochemical detection of O-GlcNAcylated proteins (CTD110.6 antibody) after 6 h incubation; format: cell-based; conditions: for Emax / EC50: Homo sapiens, HEK293, 6 h; for Emax / Cellular Emax (%): maximum = Thiamet G 200 uM; for EC50: read-out: Cellular hOGA, pEC50 (converted)
# Description: HEK293 cells inducible for P301L mutant human Tau (isoform 2N4R) were established at Janssen. Thiamet-G was used for both plate validation (high control) and as reference compound (reference EC50 assay validation). OGA inhibition is evaluated through the immunocytochemical (ICC) detection of O-GlcNAcylated proteins by the use of a monoclonal antibody (CTD110.6; Cell Signaling, #9875) detecting O-GlcNAcylated residues as previoulsy described (Dorfmueller et al. 2010 Chemistry & biology, 17:1250). Inhibition of OGA will result in an increase of O-GlcNAcylated protein levels resulting in an increased signal in the experiment. Cell nuclei are stained with Hoechst to give a cell culture quality control and a rough estimate of immediate compounds toxicity, if any. ICC pictures are imaged with a Perkin Elmer Opera Phenix plate microscope and quantified with the provided software Perkin Elmer Harmony 4.1.
# Cells were propagated in DMEM high Glucose (Sigma, # D5796) following standard procedures. 2 days before the cell assay cells are split, counted and seeded in Poly-D-Lysine (PDL) coated 96-wells (Greiner, #655946) plate at a cell density of 12,000 cells per cm^2 (4,000 cells per well) in 100 μl of Assay Medium (Low Glucose medium is used to reduce basal levels of GlcNAcylation) (Park et al. 2014 The Journal of biological chemistry 289:13519). At the day of compound test medium from assay plates was removed and replenished with 90 μl of fresh Assay Medium. 10 μl of compounds at a 10 fold final concentration were added to the wells. Plates were centrifuged shortly before incubation in the cell incubator for 6 hours. DMSO concentration was set to 0.2%. Medium is discarded by applying vacuum. For staining of cells medium was removed and cells washed once with 100 μl D-PBS (Sigma, # D8537). From next step onwards unless other stated assay volume was always 50 μl and incubation was performed without agitation and at room temperature. Cells were fixed in 50 μl of a 4% paraformaldehyde (PFA, Alpha aesar, #043368) PBS solution for 15 minutes at room temperature. […] Before analysis samples were washed 2 times manually for 5 minutes in ICC base buffer.
# Imaging is performed using Perkin Elmer Phenix Opera using a water 20× objective and recording 9 fields per well. Intensity readout at 488 nm is used as a measure of O-GlcNAcylation level of total proteins in wells. To assess potential toxicity of compounds nuclei were counted using the Hoechst staining. IC50-values are calculated using parametric non-linear regression model fitting. As a maximum inhibition Thiamet G at a 200 uM concentration is present on each plate. In addition, a concentration response of Thiamet G is calculated on each plate.
Emax [1] [%],IC50 [1] [µM],Enzymatic Emax (%) [1] [%],Enzymatic hOGA; pIC50 [1],Compound,Emax [2] [%],EC50 [2] [µM],Cellular hOGA; pEC50 [2],Cellular Emax (%) [2] [%]
103,0.00912,,,"CC(=O)Nc1ncc(CN2CCCC(c3cc(C)nc(C)c3)C2)s1 (single isomer, unassigned) [compound 130]",99,0.0132,,
99,0.282,,,Cc1cc(C[C@H]2CCCN(Cc3ccc4scnc4c3)C2)cc(C)n1 [compound 147],33.2,> 1,,
101,0.00603,,,CC(=O)Nc1ncc(CN2CCCC(Nc3ccnc(C)c3)C2)s1 (racemic) [compound 155],84.2,0.0148,,
101,0.0417,,,Cc1cc(C2CCCN(C(C)c3ccc4nccnc4c3)C2)cc(C(F)(F)F)n1 (stereo not shown) [compound 144],42.8,> 1,,
,,101,6.81,Cc1cc(CC2CCN(C(C)c3ccc4c(c3)OCCO4)C2)cc(C)n1.Cl.Cl (mixture of isomers) [compound 95],,,<6,38.2
99.6,0.00245,,,CC(=O)Nc1ncc(CN2CCCC(Cc3cc(C)nc(C)c3)C2)s1 (stereo not shown) [compound 27],118,0.00525,,
,,101.5,8.24,CCc1cc(C[C@H]2CCN(Cc3cnc(NC(C)=O)s3)C2)cc(C)n1.Cl [compound 80],,,7.94,90
,,101.9,7.90,CC(=O)Nc1ncc(CN2CC[C@H](Cc3ccnc(C)c3)C2)s1 [compound 63],,,7.46,90.1
100,0.0646,,,CC(=O)Nc1ncc(CN2CCC[C@H](Oc3ccnc(C)c3)C2)s1 (racemic) [compound 17],96.2,0.389,,
102,0.02,,,CC(=O)Nc1ncc(CN2CCC(Cc3ncc(F)cc3C)C2)s1 (stereo not shown) [compound 104],89.4,0.0589,,
,,99.3,7.63,CC(=O)Nc1ncc(CN2CCC(Cc3ncc(F)cc3F)C2)s1 (stereo not shown) [compound 75],,,7.11,104.1
102,0.0724,,,CC(=O)Nc1ncc(CN2CCC(OCc3cc(C)nc(C)c3)C2)s1 (stereo not shown) [compound 81],51.7,0.501,,
97.9,0.105,,,CC(=O)Nc1ncc(CN2CC[C@H](Cc3ccc(OC(F)(F)F)cn3)C2)s1 [compound 49],89.6,0.0851,,
99.7,0.0224,,,CC(=O)Nc1ncc(CN2CC[C@H](Cc3cnc(C(=O)NC(C)(C)C)cn3)C2)s1 [compound 92],92.6,0.0813,,
,,102.4,7.93,CC(=O)Nc1ncc(CN2CC[C@H](Cc3cnc(C)nc3)C2)s1 [compound 62],,,7.20,81.8
102,0.00457,,,CC(=O)Nc1ncc(CN2CC[C@H](Cc3cc(C)nc(C)c3)C2)s1 [compound 112],118,0.0178,,

Emax [1] [%],IC50 [1] [µM],Enzymatic Emax (%) [1] [%],Enzymatic hOGA; pIC50 [1],Compound,Emax [2] [%],EC50 [2] [µM],Cellular hOGA; pEC50 [2],Cellular Emax (%) [2] [%]
99.3,0.0178,,,CC(=O)Nc1ncc(CN2CCCC(c3cc(C)nc(C)c3)C2)s1 (stereo not shown) [compound 7],98.9,0.00891,,
99.1,0.00309,,,CC(=O)Nc1ncc(CN2CC[C@H](Cc3cnc(C)c(C)c3)C2)s1 [compound 37],87.8,0.0182,,
100,0.0288,,,CC(=O)Nc1ncc(CN2CC[C@H](Cc3nc(C)ccc3C(F)(F)F)C2)s1 [compound 54],75.9,0.234,,
102,0.0214,,,COc1cc(C[C@H]2CCN(Cc3cnc(NC(C)=O)s3)C2)cc(C(F)(F)F)n1 [compound 143],86.2,0.0603,,
101,0.0589,,,Cc1cc(C[C@H]2CCN(C(C)c3ccc4sc(C)nc4c3)C2)cc(C)n1 (mixture of isomers) [compound 87],28.6,> 1,,
102,0.00282,,,CC(=O)Nc1ncc(CN2CCC[C@H](Cc3ccc(F)c(C)n3)C2)s1 [compound 129],101,0.02,,
98.3,0.0537,,,CC(=O)Nc1ncc(CN2CC[C@H](Cc3cc(C(F)(F)F)cnc3C)C2)s1 [compound 51],93.5,0.123,,
102,0.0195,,,CC(=O)Nc1ncc(CN2CCC(Cc3cnc(C(N)=O)cn3)C2)s1 (stereo not shown) [compound 105],93.3,0.1,,
,,101.3,7.30,CC(=O)Nc1ncc(CN2CCC(Cc3cc(C(F)(F)F)cc(C)n3)C2)s1 (stereo not shown) [compound 60],,,7.03,87.4
,,102,8.21,CC(=O)Nc1ncc(CN2CCC(Cc3cnc(C#N)cn3)C2)s1 (stereo not shown) [compound 91],,,7.28,102.1
98.4,0.309,,,Cc1cc(C[C@H]2CCN(C(C)c3ccc4c(c3)OCO4)C2)cc(C)n1 (mixture of isomers) [compound 93],37.7,> 1,,
102,0.00794,,,CC(=O)Nc1ncc(CN2CC[C@H](Cc3ccnc(C)c3C)C2)s1 [compound 72],109,0.0324,,
99.2,0.00275,,,CC(=O)Nc1ncc(CN2CCC[C@H](Cc3cc(C)nc(F)c3)C2)s1 [compound 123],90.5,0.00977,,
102,0.0661,,,CC(=O)Nc1ncc(CN2CC[C@H](Cc3nccc(C)c3C)C2)s1 [compound 70],97.7,0.129,,
102,0.012,,,Cc1cc([C@H]2CCCN([C@@H](C)c3ccc4sc(C)nc4c3)C2)cc(C)n1 [compound 117],99.5,0.0977,,
